In ChEMBL document CHEMBL3232736, “Antiproliferative activities of halogenated thieno[3,2-d]pyrimidines” (Bioorg Med Chem, 2014):
The source made the active and inactive calls.

Experiments:
L1210 = assay: Cytotoxicity against mouse L1210 cells assessed as reduction in cell number after 48 hrs by cell counting assay; assay type: functional, cell-based; conditions: L1210, 48 h
CCRF-CEM = assay: Cytotoxicity against human CCRF-CEM cells assessed as reduction in cell number after 72 hrs by cell counting assay; assay type: functional, cell-based
HeLa [1] = assay: Cytotoxicity against human HeLa cells assessed as reduction in cell number after 72 hrs by cell counting assay; assay type: functional, cell-based
Bacillus spizizenii = assay: Antibacterial activity against Bacillus subtilis ATCC 6633 assessed as growth inhibition at 100 uM after 16 to 20 hrs by microbroth dilution method; assay type: functional
Escherichia coli = assay: Antibacterial activity against Escherichia coli ATCC 25922 assessed as growth inhibition at 100 uM after 16 to 20 hrs by microbroth dilution method; assay type: functional, organism-based
Cryptococcus neoformans [2] = assay: Antifungal activity against Cryptococcus neoformans VANC-R265 assessed as growth inhibition at 100 uM after 48 hrs by microbroth dilution method; assay type: functional
Cryptococcus neoformans [3] = assay: Antifungal activity against Cryptococcus neoformans B4546 assessed as growth inhibition at 100 uM after 48 hrs by microbroth dilution method; assay type: functional
Vero = assay: Cytotoxicity against African green monkey Vero cells assessed as reduction in cell number; assay type: cell-based; conditions: chlorocebus sabaeus
HEL = assay: Cytotoxicity against human HEL cells assessed as reduction in cell number by cell counting assay; assay type: functional
Cryptococcus neoformans [4] = assay: Antifungal activity against Cryptococcus neoformans JEC20 assessed as growth inhibition at 100 uM after 48 hrs by microbroth dilution method; assay type: functional
Candida albicans = assay: Antifungal activity against Candida albicans ATCC 10231 assessed as growth inhibition at 100 uM after 16 to 20 hrs by microbroth dilution method; assay type: functional
Staphylococcus aureus = assay: Antibacterial activity against methicillin-resistant Staphylococcus aureus subsp. aureus ATCC 43300 assessed as growth inhibition at 100 uM after 16 to 20 hrs by microbroth dilution method; assay type: functional, organism-based
Cryptococcus neoformans [5] = assay: Antifungal activity against Cryptococcus neoformans ATCC 66031 assessed as growth inhibition at 100 uM after 48 hrs by microbroth dilution method; assay type: functional
HeLa [6] = assay: Cytotoxicity against human HeLa cells assessed as reduction in cell number; assay type: functional

COc1nc(OC)c2scc([C@H]3C[C@H](O)[C@@H](CO)O3)c2n1
> 250 µM: IC50 (L1210) | IC50 (CCRF-CEM) | IC50 (HeLa [1])

Clc1nc(Cl)c2[nH]ccc2n1
>= 20 uM: MIC99 (Vero)
6.8 µM: IC50 (L1210)
25 µM: IC50 (CCRF-CEM)
20 µM: MIC99 (HEL) | MIC99 (HeLa [6])
inactive: inhibition (Bacillus spizizenii) | inhibition (Escherichia coli) | inhibition (Cryptococcus neoformans [2]) | inhibition (Cryptococcus neoformans [3]) | inhibition (Cryptococcus neoformans [4]) | inhibition (Candida albicans) | inhibition (Staphylococcus aureus) | inhibition (Cryptococcus neoformans [5])
19 µM: IC50 (HeLa [1])

Clc1nc(-n2cncn2)c2sccc2n1
> 250 µM: IC50 (L1210) | IC50 (CCRF-CEM) | IC50 (HeLa [1])

Clc1ncc2sccc2n1
inactive: inhibition (Bacillus spizizenii) | inhibition (Escherichia coli) | inhibition (Cryptococcus neoformans [2]) | inhibition (Cryptococcus neoformans [3]) | inhibition (Cryptococcus neoformans [4]) | inhibition (Candida albicans) | inhibition (Staphylococcus aureus) | inhibition (Cryptococcus neoformans [5])
> 250 µM: IC50 (L1210) | IC50 (CCRF-CEM) | IC50 (HeLa [1])
